The results in this text go back to US12240844B2 (Voronoi, Inc., priority 2019, dated 2025).

Some results are limits rather than exact numbers.

One may read the GI50 as the concentration that inhibits growth by half. A higher GI50 goes with lower sensitivity of the cells. What is called IC50 is the midpoint of a concentration-inhibition curve. A high value points to weaker potency in that assay.

For one assay, the system named is IL-6. Nature of the assay: IL-6 secretion inhibition in LPS-treated THP-1 cells (ELISA). Format: cell-based. Conditions: Homo sapiens, compound 0.5 μM, LPS 500 ng/ml, 24 hours, read-out: THP1/IL6 (% inhib). In outline: (§1)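 Human monocytic THP-1 cells were pre-cultured 16 h at 37° C., then treated with compound at 0.5 μM final, followed by LPS at 500 ng/ml final. After 24 h, IL-6 and TNF-α in culture supernatant were quantified by ELISA with absorbance read at 450 nm.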

A further assay relates to TNF-α. As to the kind of experiment: TNF-α secretion inhibition in LPS-treated THP-1 cells (ELISA). It counts as cell-based. Conditions: Homo sapiens, compound 0.5 μM, LPS 500 ng/ml, 24 hours, read-out: THP-1/TNF-a (% inhib). The method in brief:
as §1

A further assay has as its system SHP-77. Nature of the assay: SHP-77 cancer cell proliferation inhibition (Cell Titer-Glo). Format: cell-based. Conditions: Homo sapiens, SHP77, SHP-77 small cell lung cancer cell line, 72 hours. The method in brief:
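GI50 comes from CellTiter-Glo luminescence, read 10 min after reagent addition at RT, following 72 h compound treatment. Eleven concentrations were used (⅓ steps, highest 10 μM final) on 2000 cells/well. MDA-MB-231 and MDA-MB-468 were grown in DMEM, SHP-77 in RPMI.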

The target in assay [1] is T1, LRRK2, LRRK2 (G2019S), DYRK1, CLK1 and TTK kinases (Homo sapiens, UniProt P49759).
T1 construct: CLK1 IC50 (marked with *); other: CLK1; Kinase HotSpot service (Reaction Biology), ATP 10 uM
T1 sequence (P49759 whole entry, stated change not applied): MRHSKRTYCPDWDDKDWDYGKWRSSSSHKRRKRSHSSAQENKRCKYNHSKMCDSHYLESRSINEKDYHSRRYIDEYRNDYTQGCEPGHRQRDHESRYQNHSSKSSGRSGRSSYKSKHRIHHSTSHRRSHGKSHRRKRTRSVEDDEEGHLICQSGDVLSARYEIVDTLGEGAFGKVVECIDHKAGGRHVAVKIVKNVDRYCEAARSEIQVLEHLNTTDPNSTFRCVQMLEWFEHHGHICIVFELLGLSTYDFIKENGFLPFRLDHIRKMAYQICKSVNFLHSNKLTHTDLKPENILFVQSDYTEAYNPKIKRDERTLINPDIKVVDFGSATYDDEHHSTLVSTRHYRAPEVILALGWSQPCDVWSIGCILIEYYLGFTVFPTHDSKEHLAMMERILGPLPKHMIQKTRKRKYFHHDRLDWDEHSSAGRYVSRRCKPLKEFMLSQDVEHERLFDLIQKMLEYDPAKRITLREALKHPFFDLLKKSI
As to the kind of experiment: Enzyme IC50 by Kinase HotSpot service (Reaction Biology Corporation), values marked with *. Format: biochemical. Conditions: CLK1, ATP 10 uM. The method in brief:
(§2)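 Radiometric-service kinase assays (Reaction Biology HotSpot protocol) run at 10 uM ATP under uniform conditions. Compounds tested as 3-fold dilution series from a top concentration of […] to give IC50.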

The target in assay [2] is T2, LRRK2, LRRK2 (G2019S), DYRK1, CLK1 and TTK kinases (Homo sapiens, UniProt Q5S007).
T2 construct: LRRK2 IC50 (marked with *); other: LRRK2; Kinase HotSpot service (Reaction Biology), ATP 10 uM
T2 sequence (Q5S007 whole entry G2019S): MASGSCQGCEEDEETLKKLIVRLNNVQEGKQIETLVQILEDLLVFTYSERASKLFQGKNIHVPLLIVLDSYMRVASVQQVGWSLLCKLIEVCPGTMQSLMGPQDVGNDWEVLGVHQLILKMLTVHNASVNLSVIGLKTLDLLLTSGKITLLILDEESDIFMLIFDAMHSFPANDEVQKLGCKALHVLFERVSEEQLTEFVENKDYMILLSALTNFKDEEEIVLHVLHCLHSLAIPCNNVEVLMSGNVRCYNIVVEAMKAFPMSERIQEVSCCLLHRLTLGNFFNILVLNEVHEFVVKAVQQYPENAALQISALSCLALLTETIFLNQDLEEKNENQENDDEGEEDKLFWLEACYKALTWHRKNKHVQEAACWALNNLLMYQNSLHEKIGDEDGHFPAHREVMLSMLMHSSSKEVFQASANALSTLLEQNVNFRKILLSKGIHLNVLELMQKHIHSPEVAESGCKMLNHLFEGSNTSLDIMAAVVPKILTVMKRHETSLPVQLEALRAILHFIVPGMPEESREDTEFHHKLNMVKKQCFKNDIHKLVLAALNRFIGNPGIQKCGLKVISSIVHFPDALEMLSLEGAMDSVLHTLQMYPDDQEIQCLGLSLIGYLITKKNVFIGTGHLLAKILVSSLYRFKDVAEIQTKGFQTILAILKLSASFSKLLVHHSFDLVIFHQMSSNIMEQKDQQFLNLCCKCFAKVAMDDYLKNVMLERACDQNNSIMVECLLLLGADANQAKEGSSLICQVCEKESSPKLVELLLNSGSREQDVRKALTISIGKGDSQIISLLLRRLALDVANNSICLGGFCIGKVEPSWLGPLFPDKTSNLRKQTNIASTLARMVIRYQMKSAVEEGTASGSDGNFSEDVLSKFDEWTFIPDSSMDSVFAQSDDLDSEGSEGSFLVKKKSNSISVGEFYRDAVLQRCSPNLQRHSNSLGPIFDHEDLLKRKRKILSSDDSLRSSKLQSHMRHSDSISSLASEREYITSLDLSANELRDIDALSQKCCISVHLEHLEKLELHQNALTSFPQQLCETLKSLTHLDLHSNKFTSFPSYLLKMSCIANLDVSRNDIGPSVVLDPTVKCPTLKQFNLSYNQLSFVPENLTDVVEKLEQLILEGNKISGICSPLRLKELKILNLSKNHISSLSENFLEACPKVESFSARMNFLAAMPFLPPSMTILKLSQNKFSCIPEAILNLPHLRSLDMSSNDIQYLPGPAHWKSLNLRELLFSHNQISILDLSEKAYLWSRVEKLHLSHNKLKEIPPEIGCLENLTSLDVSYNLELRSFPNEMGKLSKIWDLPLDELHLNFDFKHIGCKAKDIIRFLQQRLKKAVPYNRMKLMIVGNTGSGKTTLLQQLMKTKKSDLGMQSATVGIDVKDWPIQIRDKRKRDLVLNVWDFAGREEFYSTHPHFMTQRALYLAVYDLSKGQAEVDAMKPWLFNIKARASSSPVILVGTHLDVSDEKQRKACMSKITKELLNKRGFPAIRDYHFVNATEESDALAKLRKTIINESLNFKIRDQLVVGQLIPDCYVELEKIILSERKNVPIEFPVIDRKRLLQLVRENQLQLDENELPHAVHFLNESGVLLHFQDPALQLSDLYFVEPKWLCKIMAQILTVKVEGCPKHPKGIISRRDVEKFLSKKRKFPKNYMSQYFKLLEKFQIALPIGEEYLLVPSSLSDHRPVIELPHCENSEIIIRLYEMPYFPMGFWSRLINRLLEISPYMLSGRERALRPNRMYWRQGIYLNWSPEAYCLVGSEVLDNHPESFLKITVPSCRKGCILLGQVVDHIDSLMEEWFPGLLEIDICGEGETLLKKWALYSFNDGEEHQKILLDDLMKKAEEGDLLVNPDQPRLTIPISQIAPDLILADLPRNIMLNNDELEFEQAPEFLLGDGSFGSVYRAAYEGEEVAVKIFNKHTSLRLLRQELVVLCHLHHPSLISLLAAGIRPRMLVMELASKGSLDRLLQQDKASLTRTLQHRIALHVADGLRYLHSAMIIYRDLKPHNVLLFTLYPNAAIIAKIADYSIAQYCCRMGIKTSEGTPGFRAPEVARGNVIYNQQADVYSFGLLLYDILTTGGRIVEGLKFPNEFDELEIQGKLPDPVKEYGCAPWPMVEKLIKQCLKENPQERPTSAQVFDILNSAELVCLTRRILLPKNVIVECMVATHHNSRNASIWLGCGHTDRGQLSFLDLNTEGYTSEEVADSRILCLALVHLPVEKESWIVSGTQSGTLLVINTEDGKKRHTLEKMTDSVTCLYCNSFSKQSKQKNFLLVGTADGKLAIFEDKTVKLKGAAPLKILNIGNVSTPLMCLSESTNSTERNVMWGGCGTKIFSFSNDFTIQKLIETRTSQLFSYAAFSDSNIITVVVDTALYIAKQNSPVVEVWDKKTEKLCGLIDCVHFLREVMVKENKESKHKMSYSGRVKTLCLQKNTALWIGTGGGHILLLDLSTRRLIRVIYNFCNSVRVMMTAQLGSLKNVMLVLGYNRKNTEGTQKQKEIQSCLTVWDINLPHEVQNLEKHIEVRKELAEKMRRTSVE
The assay is described as above. Format: biochemical. The conditions noted are these: LRRK2, ATP 10 uM. The method in brief:
as §2

`CCNc1cc(Nc2ccc(C(=O)N3CCC(N4CCOCC4)CC3)c3c2OCC3)nc2[nH]cc(C(F)(F)F)c12` [Example 90, (7-((4-(ethylamino)-3-(trifluoromethyl)-1H-pyrrolo[2,3-b]pyridin-6-yl)amino)-2,3-dihydrobenzofuran-4-yl)(4-morpholinopiperidin-1-yl)methanone]: the values for the inhibition at 0.5 µM with IL-6 and with TNF-α were 12.2% and 12.4%, respectively.

`COc1cc(S(=O)(=O)N2CCOCC2)ccc1Nc1cc(C2CC2)c2c(C(F)(F)F)c[nH]c2n1` [Example 222, 4-cyclopropyl-N-(2-methoxy-4-(morpholinosulfonyl)phenyl)-3-(trifluoromethyl)-1H-pyrrolo[2,3-b]pyridin-6-amine] showed a 50% growth inhibitory concentration (GI50) in the assay on SHP-77 of 301 to 1000 nM.

In the assay on SHP-77, `CNc1cc(Nc2ccc(S(=O)(=O)N3CCC(N4C[C@H]5C[C@@H]4CO5)CC3)cc2OC)nc2[nH]cc(C(F)(F)F)c12` [Example 243, N^6-(4-((4-((1R,4R)-2-oxa-5-azabicyclo[2.2.1]heptan-5-yl)piperidin-1-yl)sulfonyl)-2-methoxyphenyl)-N^4-methyl-3-(trifluoromethyl)-1H-pyrrolo[2,3-b]pyridine-4,6-diamine] displayed a GI50 of 51 to 100 nM. Also, the results for the inhibition at 0.5 µM in the assay with IL-6 and in the assay on TNF-α were 32.3% and 2.1%, respectively.

For `CCNc1cc(Nc2ccc(P3(=O)CCN(C4CCOCC4)CC3)cc2OC)nc2[nH]cc(C(F)(F)F)c12` [Example 94, 4-(4-((4-(ethylamino)-3-(trifluoromethyl)-1H-pyrrolo[2,3-b]pyridin-6-yl)amino)-3-methoxyphenyl)-1-(tetrahydro-2H-pyran-4-yl)-1,4-azaphosphinane 4-oxide], the inhibition at 0.5 µM with IL-6 worked out at 21%; in the assay on TNF-α, 6.6%.

Take `COCCNc1cc(Nc2ccc(S(=O)(=O)N3CCC(N4CCOCC4)CC3)c3c2OCCO3)nc2[nH]cc(C(F)(F)F)c12` [Example 97, N^4-(2-methoxyethyl)-N^6-(8-((4-morpholonopiperidin-1-yl)sulfonyl)-2,3-dihydrobenzo[b] [1,4]dioxin-5-yl)-3-(trifluoromethyl)-1H-pyrrolo[2,3-b]pyridine-4,6-diamine]: the GI50 in the assay with SHP-77 was 301 to 1000 nM. In addition, the values for the inhibition at 0.5 µM with IL-6 and in the assay on TNF-α were 17% and 5.5%, respectively.

As for `COc1cc(S(=O)(=O)N2CCOCC2)ccc1Nc1cc(C2CC2)c2c(C#N)c[nH]c2n1` [Example 227, 4-cyclopropyl-6-((2-methoxy-4-(morpholinosulfonyl)phenyl)amino)-1H-pyrrolo[2,3-b]pyridine-3-carbonitrile], in the assay on SHP-77, the 50% growth inhibitory concentration (GI50) was in the range of 301 to 1000 nM.

Consider `O=C(c1ccc(Nc2cc(C3CC3)c3c(C(F)(F)F)c[nH]c3n2)c2c1CCO2)N1CC[C@@H](N2CCOCC2)C1` [Example 238, (R)-(7-((4-cyclopropyl-3-(trifluoromethyl)-1H-pyrrolo[2,3-b]pyridin-6-yl)amino)-2,3-dihydrobenzofuran-4-yl)(3-morpholinopyrrolidin-1-yl)methanone], for which the values for the half-inhibitory concentration (IC50) in assay [1] and in assay [2] were under 100 nM and 101 to 300 nM, respectively.

With `CCNc1cc(Nc2ccc(S(=O)(=O)N3CCC(N4CCOCC4)CC3)c3c2OCCO3)nc2[nH]cc(C(F)(F)F)c12` [Example 96, N^4-ethyl-N^6-(8-((4-morpholonopiperidin-1-yl)sulfonyl)-2,3-dihydrobenzo [b] [1,4]dioxin-5-yl)-3-(trifluoromethyl)-1H-pyrrolo[2,3-b]pyridine-4,6-diamine], in the assay on SHP-77, the concentration for 50% growth inhibition (GI50) was 301 to 1000 nM.

`COc1cc(S(=O)(=O)N2CCC(N3CCOCC3)CC2)ccc1Nc1cc(C2CC2)c2c(C#N)c[nH]c2n1` [Example 228, 4-cyclopropyl-6-((2-methoxy-4-((4-morpholinopiperidin-1-yl)sulfonyl)phenyl)amino)-1H-pyrrolo[2,3-b]pyridine-3-carbonitrile]: in the assay on SHP-77, the 50% growth inhibitory concentration (GI50) fell in the range of 51 to 100 nM.

On to `CCNc1cc(Nc2ccc(C(=O)N3CCN(C4COC4)CC3)c3c2OCC3)nc2[nH]cc(C(F)(F)F)c12` [Example 248, (7-((4-(ethylamino)-3-(trifluoromethyl)-1H-pyrrolo[2,3-b]pyridin-6-yl)amino)-2,3-dihydrobenzofuran-4-yl)(4-(oxetan-3-yl)piperazin-1-yl)methanone], for which the inhibition at 0.5 µM in the assay with IL-6 was found to be 48.4%; in the assay on TNF-α it was 9.2%.

As to `CCNc1cc(Nc2ccc(C(=O)N3CCC(N4C[C@@H]5C[C@H]4CO5)CC3)c3c2OCC3)nc2[nH]cc(C(F)(F)F)c12` [Example 105, (4-((1S,4S)-2-oxa-5-azabicyclo[2.2.1]heptan-5-yl)piperidin-1-yl)(7-((4-(ethylamino)-3-(trifluoromethyl)-1H-pyrrolo[2,3-b]pyridin-6-yl)amino)-2,3-dihydrobenzofuran-4-yl)methanone], the inhibition at 0.5 µM is 33.2% in the assay on IL-6 and 1.7% in the assay with TNF-α.

Turning to `CNc1cc(Nc2ccc(C(=O)N3CCC(N4CCOCC4)CC3)c3c2OCC3)nc2[nH]cc(C(F)(F)F)c12` [Example 234, (7-((4-(methylamino)-3-(trifluoromethyl)-1H-pyrrolo[2,3-b]pyridin-6-yl)amino)-2,3-dihydrobenzofuran-4-yl)(4-morpholinopiperidin-1-yl)methanone], the figures for the inhibition at 0.5 µM in the assay on IL-6 and in the assay on TNF-α were 50.9% and 12.4%, respectively.

For `CCNc1cc(Nc2ccc(C(=O)N3CCN(C4COC4)CC3)c3c2OCCO3)nc2[nH]cc(C(F)(F)F)c12` [Example 173, (8-((4-(ethylamino)-3-(trifluoromethyl)-1H-pyrrolo[2,3-b]pyridin-6-yl)amino)-2,3-dihydrobenzo[b] [1,4]dioxin-5-yl)(4-(oxetan-3-yl)piperazin-1-yl)methanone], the values for the inhibition at 0.5 µM in the assay with IL-6 and in the assay on TNF-α were 9.1% and 5.9%, respectively.

The compound `O=C(c1ccc(Nc2cc(C3CC3)c3c(C(F)(F)F)c[nH]c3n2)c2c1CCO2)N1CCOCC1` [Example 91, (7-((4-cyclopropyl-3-(trifluoromethyl)-1H-pyrrolo[2,3-b]pyridin-6-yl)amino)-2,3-dihydrobenzofuran-4-yl)(morpholino) methanone] had a concentration for half-maximal inhibition (IC50) in assay [1] of under 100 nM. Besides, the figures for the inhibition at 0.5 µM in the assay with IL-6 and in the assay on TNF-α were 52.5% and 9.6%, respectively.

Consider `CNc1cc(Nc2ccc(S(=O)(=O)N3CCC(N4CCOCC4)CC3)c3c2OCCO3)nc2[nH]cc(C(F)(F)F)c12` [Example 233, N^4-methyl-N^6-(8-((4-morpholinopiperidin-1-yl)sulfonyl)-2,3-dihydrobenzo [b] [1,4]dioxin-5-yl)-3-(trifluoromethyl)-1H-pyrrolo[2,3-b]pyridine-4,6-diamine], for which, in the assay with SHP-77, the GI50 lay within 301 to 1000 nM. In addition, the inhibition at 0.5 µM is 4.3% in the assay with IL-6 and 12.5% in the assay on TNF-α.

In the assay with SHP-77, `COc1cc(S(=O)(=O)N2CCC(N3CCOCC3)CC2)ccc1Nc1cc(NCCS(C)(=O)=O)c2c(C(F)(F)F)c[nH]c2n1` [Example 194, N^6-(2-methoxy-4-((4-morpholinopiperidin-1-yl)sulfonyl)phenyl)-N^4-(2-(methylsulfonyl)ethyl)-3-(trifluoromethyl)-1H-pyrrolo[2,3-b]pyridine-4,6-diamine] returned a GI50 of 301 to 1000 nM. Moreover, the inhibition at 0.5 µM with IL-6 is 6.3%; with TNF-α, 37.6%.

As for `CCNc1cc(Nc2ccc(C(=O)N3CCC(N4C[C@H]5C[C@@H]4CO5)CC3)c3c2OCC3)nc2[nH]cc(C(F)(F)F)c12` [Example 244, (4-((1R,4R)-2-oxa-5-azabicyclo[2.2.1]heptan-5-yl)piperidin-1-yl)(7-((4-(ethylamino)-3-(trifluoromethyl)-1H-pyrrolo[2,3-b]pyridin-6-yl)amino)-2,3-dihydrobenzofuran-4-yl)methanone], the results for the inhibition at 0.5 µM in the assay on IL-6 and with TNF-α were 40.1% and 12.7%, respectively.

The compound `CCNc1cc(Nc2cc(F)c(S(=O)(=O)N3CCC(N4CCOCC4)CC3)cc2OC)nc2[nH]cc(C(F)(F)F)c12` [Example 266, N^4-ethyl-N^6-(5-fluoro-2-methoxy-4-((4-morpholinopiperidin-1-yl)sulfonyl)phenyl)-3-(trifluoromethyl)-1H-pyrrolo[2,3-b]pyridine-4,6-diamine] gave a GI50 in the assay on SHP-77 of 301 to 1000 nM.

For `O=C(c1ccc(Nc2cc(C3CC3)c3c(C(F)(F)F)c[nH]c3n2)c2c1CCO2)N1CC[C@H](N2CCOCC2)C1` [Example 237, (S)-(7-((4-cyclopropyl-3-(trifluoromethyl)-1H-pyrrolo[2,3-b]pyridin-6-yl)amino)-2,3-dihydrobenzofuran-4-yl)(3-morpholinopyrrolidin-1-yl)methanone], the concentration for half-maximal inhibition (IC50) in assay [1] was under 100 nM; in assay [2], 101 to 300 nM.

`CNc1cc(Nc2ccc(C(=O)N3CC[C@@H](N4CCOCC4)C3)c3c2OCC3)nc2[nH]cc(C(F)(F)F)c12` [Example 214, (R)-(7-((4-(methylamino)-3-(trifluoromethyl)-1H-pyrrolo[2,3-b]pyridin-6-yl)amino)-2,3-dihydrobenzofuran-4-yl)(3-morpholinopyrrolidin-1-yl)methanone]: the inhibition at 0.5 µM in the assay on TNF-α was determined as 12%.
